Results as given in paper PMC4359714 (Naunyn-Schmiedeberg's Archives of Pharmacology, 2015).

Tests used:
[1] = test system: cold hypersensitivity after CFA or peripheral nerve injury models; details: ref Knowlton et al. [2011]; cited from earlier work
rats = experiment: Open field activity; assay type: in vivo, rat; details: 5.6 mg/kg i.p., 30 min before; p < 0.05 vs vehicle (14,484 ± 1686 cm)
Method: Rats were habituated in a reversed light cycle room in home cages for at least 1 week and acclimated to the testing room for 1 h prior to dosing. TRPM8 antagonist (10, 30, or 100 mg/kg) or vehicle (5 % Tween 80 in OraPlus®) was injected 2 h before placing an animal in the open-field apparatus. Open-field activity was measured using a system that counts interruptions of a set of photobeams for the course of 60 min (Kinder Scientific, Poway, CA). To begin a session, animals were removed from the home cage and placed individually into an independent Plexiglas box (41 cm L × 41 cm W × 38 cm H) surrounded by a frame consisting of 32 photocells (16Y and 16X) that track the movement of the animal. Photobeam breaks were used as an indication of activity and were measured as the following parameters per minute: basic movements (beam breaks), distance traveled (cm), time spent (s), and number of repetitive beam breaks (i.e., stereotypic movement). Chlordiazepoxide, which consistently elicits a decrease in open field activity, was used as a positive control. Chlordiazepoxide was formulated in saline at 5.6 mg/kg i.p. and dosed 30 min before the start of the open field assay.

SNL rats = experiment: SNL-induced tactile allodynia (von Frey, up-down method); assay type: in vivo, rat; details: 200 mg/kg p.o.; p < 0.05 vs vehicle (4.4 ± 1.2 g)
Method: SNL surgery was performed using aseptic surgical techniques and a stereomicroscope (Kim and Chung [1992]). Spinal nerve injury was caused by ligating the left L5 and L6 spinal nerves, with special care to avoid damage to the L4 spinal nerve or surrounding area. More specifically, under gaseous anesthesia with a mixture of O2 and isoflurane (3 % for induction and 2 % for maintenance), skin was excised and the longissimus lumborum muscle, part of articular processes (L4-S1), and the fascia above L6 spinal nerve were carefully removed. […]
Behavioral testing Two weeks post surgery, mechanical sensitivity was measured by determining the median 50 % foot withdrawal threshold for von Frey filaments using the up-down method (Chaplan et al. [1994]). […] To avoid possible reflex responses, only abrupt withdrawal of the foot accompanied by pain indicative behaviors (namely paw flinching, shaking, or licking for more than 2 s) was recorded as a response. […]
In vivo IC50 and IC90 estimates using WDS model data were determined by fitting a sigmoidal dose-response curve to individual animal number of WDS versus resulting plasma concentration. Behavioral and electrophysiological data are expressed as mean ± standard error of the mean (S.E.M.). Results were analyzed using one-way analysis of variance (ANOVA) with Dunnett’s multiple-comparisons post-hoc test for significance relative to vehicle. […]

[2] = test system: TRPM8-mediated icilin-induced wet-dog shakes in rats; experiment: Icilin-induced wet-dog shake (WDS) model; assay type: in vivo, rat
Method: The TRPM8 antagonist (1, 3, or 10 mg/kg) or vehicle control (5 % Tween 80 in OraPlus®) was administered p.o. 90 min prior to administration of icilin (0.5 mg/kg, 1 ml/kg, i.p., 100 % PEG 400). […] Rats were viewed through transparent Plexiglas® observation cylinders that were placed on a custom, opaque, plastic apparatus such that one rat could not view another rat.
In vivo IC50 and IC90 estimates using WDS model data were determined by fitting a sigmoidal dose-response curve to individual animal number of WDS versus resulting plasma concentration. Behavioral and electrophysiological data are expressed as mean ± standard error of the mean (S.E.M.). Results were analyzed using one-way analysis of variance (ANOVA) with Dunnett’s multiple-comparisons post-hoc test for significance relative to vehicle. […] Actual gram values are plotted on a logarithmic scale Y-axis of the figures for convenience. Statistical calculations and graphs were made using GraphPad Prism 5.01 (GraphPad Software Inc, San Diego, CA). Percent responders to menthol stimulation in the ex vivo skin-nerve preparation were compared under vehicle and antagonist conditions through the use of Fisher’s exact test. Responses of C fibers to increasing mechanical forces under vehicle or antagonist conditions were compared using a two-way ANOVA with a Bonferonni post-hoc analysis.

COc1cc(CN(CCN)C(=O)OC(C)c2ccccc2)ccc1OCc1ccccc1 (centres unmarked) [PBMC]
effect on cold hypersensitivity after CFA or peripheral nerve injury [1]: attenuated cold hypersensitivity

CNC1=Nc2ccc(Cl)cc2C(c2ccccc2)=[N+]([O-])C1 [chlordiazepoxide, Chlordiazepoxide, reference compound]
total distance traveled, open field (positive control) (rats): 9423 ± 745 cm

NCC1(CC(=O)O)CCCCC1 [gabapentin, reference compound]
tactile threshold (von Frey), SNL model (positive control) (SNL rats): 12.4 ± 1.2 g

O=C1NC(c2cccc([N+](=O)[O-])c2)=CCN1c1ccccc1O [icilin, reference compound]
ED80 for induction of wet-dog shakes ([2]; icilin i.p. 0.3, 0.5, 0.75, 1 mg/kg): less than 0.5 mg/kg | ED90 for induction of wet-dog shakes ([2]; icilin i.p. 0.3–1.0 mg/kg dose-response, interval 0.28–0.75, data not shown): 0.46 mg/kg
